Measured values as given in PMC11884657, “Ru(II)-Fenamic-Based Complexes as Promising Human Ovarian Antitumor Agents: DNA Interaction, Cellular Uptake, and Three-Dimensional Spheroid Models” (Inorganic Chemistry, 2025).
Like-named read-outs stand apart in the source and are kept apart here.

Key:
[1] = test system: A549 (lung) cancer cells; assay: MTT cytotoxicity assay, A549; conditions: read-out: In Vitro Cytotoxicity IC50, A549
Description: (§1) The cell lines were grown in culture bottles and incubated at a CO2 concentration of 5% and 37 °C.
(§2) Cell viability was investigated via the MTT [3-(4,5-dimethylthiazol-2-yl)-2,5-diphenyltetrazolium bromide] assay. This method consists of the capacity of enzymes present in living cells, especially in mitochondria, to reduce MTT to formazan, a purple-colored compound. […] For the assays, 1.5 × 10^4 cells/well were seeded in 96-well flat-bottom cell culture plates (KASVI). The plates were incubated for 24 h; then, different concentrations of the complexes were pipetted, and the plates were treated for an additional 48 h. To complete the treatment, 50 μL of MTT (1 mg/mL in PBS) was added to each well, followed by incubation for 3 h. The formazan crystals that formed were solubilized in isopropanol, and the absorbance was read with a microplate reader (BioTek, Epoch) at 540 nm. Cell viability (IC50) was assessed with GraphPad Prism 8.

[2] = test system: A2780cis (ovarian cisplatin-resistant) cancer cells; assay: MTT cytotoxicity assay, A2780cis; conditions: read-out: In Vitro Cytotoxicity IC50, A2780cis
Description: as §1, §2

[3] = test system: MDA-MB-231 (breast) cancer cells; assay: MTT cytotoxicity assay, MDA-MB-231; conditions: read-out: In Vitro Cytotoxicity IC50, MDA-MB-231
Description: as §1, §2

[4] = test system: A2780 (ovarian) cancer cells; assay: MTT cytotoxicity assay, A2780; conditions: read-out: In Vitro Cytotoxicity IC50, A2780
Description: as §1, §2

[5] = MTT cytotoxicity assay, MRC-5; conditions: human
Description: as §1, §2

[6] = in vitro; conditions: human
Description: as §1, §2

[7] = Stability by 31P{1H} NMR; conditions: 48 h
Description: Furthermore, the stability of the complexes was studied via ^31P{^1H} NMR in DMSO and a DMSO/DMEM (Dulbecco’s modified Eagle’s medium) solution over 48 h. […] In the same way, stability assays were performed for the precursor cis-[RuCl2(bipy)(dppp)].

[8] = test system: MRC-5 (lung) normal cells; assay: MTT cytotoxicity assay, MRC-5; conditions: read-out: In Vitro Cytotoxicity IC50, MRC-5; MTT, 48 h treatment
Description: as §1, §2

[9] = test system: A2780 tumor spheroids; assay: 3D tumor spheroids; format: cell-based, human
Description: In this experiment, the spheroids were monitored for 144 h after treatment with 1 at several concentrations (0.78–12.5 μM). […] As observed, at this concentration there is a decrease in the diameter, followed by stabilization, after treatment for 48 h. […] These findings underscore the necessity to refine in vitro methodologies to better elucidate the potential of novel compounds. Such improvements are crucial for increasing the likelihood of identifying critical insights early in the drug discovery and development process, thereby minimizing errors in subsequent stages. After treatment for 144 h, double staining with both DAPI and PI was performed.
In a 96-well Bioprint Kit [Magnetic 3D Cell Culture Technology (m3D)], the 3D culture experiment was carried out. Initially, to the A2780 cells was added 150 μL of a solution containing nanoparticles (NanoShuttle - PL). The A2780 cells were added to a 96-well repellent culture plate after 24 h. The resulting 1500 cells/well were placed under magnetic drives to form spheroids through the magnetic forces of the magnets. […] The formation of spheroids and their growth were monitored by a Digital Imaging System microscope (CELENA S, Logos Biosystems). Once the spheroids were formed, complex 1 at different concentrations (0.78, 1.56, 3.12, 6.25, and 12.5 μM) was added, and the effect of the compound on the spheroids was monitored for 144 h. […]

[10] = test system: A2780 ovarian cancer cells; assay: Morphological assay (bright field, PI, DAPI/Green Plasma); format: cell-based, human; conditions: for DAPI and Green Plasma staining / propidium iodide fluorescence intensity: 48 h, 0.5 × IC50, IC50, 2 × IC50; for cell morphology: up to 48 h, mainly at higher concentrations
Description: For morphological analysis, A2780 cancer cells (0.3 × 10^5 cells/well) were added to a 12-well plate in RPMI medium. After 24 h, different concentrations of complexes 1 and 2 were introduced into the cells. Possible morphological changes were evaluated at 0 and 48 h using an inverted optical microscope (NIKON ECLIPSE TS100) coupled with a Motcam 1SP camera, with a 10× objective lens.
Additionally, 1.5 × 10^4 A2780 cells/well were plated in 96-well plates in RPMI medium for the fluorescence morphology experiments. After treatment for 48 h, 100 μL (1 μg mL^–1) of the fluorescent marker PI ([…]) was added. For the morphological assessment using the fluorescent markers DAPI (4′,6-diamidino-2-phenylindole dilactate) and Green Plasma (CellMask), the cells were fixed in methanol and 80 μL (1 μg mL^–1) portions of the markers were added. Images were taken using a CELENA microscope (Logos Biosystems).

[11] = test system: A2780 cancer cells; assay: Clonogenic survival assay; format: cell-based, human; conditions: 0.5 × IC50, 48 h treatment then 7 days
Description: The A2780 cancer cells were used for the clonogenic assay, in which a total of 400 cells/well were seeded in a six-well plate in RPMI medium, and after incubation for 24 h, different concentrations of complexes 1 and 2 were added. The plates containing the complexes were incubated (37 °C and 5% of CO2) for 48 h. The culture medium was replaced with fresh medium, and the system was incubated again for 7 days under the same condition. Thereafter, all culture media were removed from the plate, and the cells were washed with PBS and fixed with a 3:1 methanol/acetic acid mixture. Then the cells were colored with a 0.5% crystal violet solution in water for 30 min. Images were taken, and the colonies counted using ImageJ. The experiment was also carried out in triplicate.

[12] = test system: A2780 cells; assay: Cellular uptake of ruthenium by HR-CS GFAAS; format: cell-based, human; conditions: 1 μM complex, 4 h
Description: Due to the higher cytotoxicity of complexes 1 and 2 against the A2780 cell line, experiments were performed to evaluate their cell internalization capacity. These studies are crucial to determine whether the complexes can efficiently penetrate the cell membrane and to correlate their antiproliferative effects with their uptake levels.[59] A2780 cells were exposed to complexes 1 and 2 (1 μM) over a period of 4 h, and the cellular uptake of ruthenium was quantified using graphite furnace atomic absorption spectrometry.
A2780 cancer cells (2 × 10^6 cells/plate) were seeded in Petri dishes. After 24 h, complexes 1 and 2 (1 μM) were added to the cells for 4 h. Subsequently, the RPMI medium was removed, and the cells were washed with phosphate-buffered saline (PBS), trypsinized, and counted. The ruthenium absorbance measurements were conducted with an Analytik Jena ContrAA 700 graphite furnace atomic absorption spectrometer (Jena, Germany), equipped with solid sampling tubes. The absorbance measurements were performed at 349.8945 nm, with the peak volume selected absorbance (PVSA) corresponding to three pixels. The heating program for the graphite furnace, used for the quantitative determination of ruthenium, is depicted in Table S4.[66] The analytical working solution of 50 mg L^–1 Ru was prepared by diluting standard solutions of 1000 mg L^–1 Ru (Specsol, São Paulo, Brazil) and acidifying with 0.5% (v/v) HNO3. To establish the calibration curve, appropriate aliquots of the analytical working solution were added to the atomizer to achieve concentrations of 0.1, 0.3, 0.6, 0.9, 1.2, and 1.5 ng of ruthenium. The cell suspension containing the internalized complexes was diluted with 500 μL of deionized water, acidified with 0.5% (v/v) HNO3, and homogenized using a vortex mixer (IKA model V1). For the determination of Ru by SS HR-CS GFAAS, 10 μL aliquots of the samples were transferred to the platform and introduced automatically into the graphite furnace, in which all measurements were carried out in triplicate.

`c1ccc(-c2ccccn2)nc1` [Bipy, 2,2′-bipyridine] gave an IC50 ([1]; Homo sapiens, A549, 48 h) greater than 100 µM, an IC50 ([2]; Homo sapiens, A2780cis, 48 h) greater than 100 µM and an IC50 ([3]; Homo sapiens, MDA-MB-231, 48 h) greater than 100 µM. It also gave an IC50 ([4]; Homo sapiens, A2780, 48 h) greater than 100 µM and an IC50 at 48 h ([5]; MRC-5 normal lung cells) greater than 100 µM.
`c1ccc(P(CCCP(c2ccccc2)c2ccccc2)c2ccccc2)cc1` [Dppp, 1,3-bis(diphenylphosphino)propane] showed an IC50 ([1]; Homo sapiens, A549, 48 h) greater than 100 µM, an IC50 at 48 h [6] greater than 100 µM and an IC50 ([2]; Homo sapiens, A2780cis, 48 h) greater than 100 µM. It also gave an IC50 ([3]; Homo sapiens, MDA-MB-231, 48 h) greater than 100 µM and an IC50 ([4]; Homo sapiens, A2780, 48 h) greater than 100 µM.
`O=C(O)c1ccccc1Nc1ccccc1` [HFe, fenamic acid] gave an IC50 ([1]; Homo sapiens, A549, 48 h) greater than 100 µM, an IC50 ([2]; Homo sapiens, A2780cis, 48 h) greater than 100 µM and an IC50 ([3]; Homo sapiens, MDA-MB-231, 48 h) greater than 100 µM. It also gave an IC50 ([4]; Homo sapiens, A2780, 48 h) greater than 100 µM and an IC50 at 48 h [5] greater than 100 µM.
For `O=C(O)c1ccccc1Nc1cccc(C(F)(F)F)c1` [HMFFe, flufenamic acid], the IC50 ([1]; Homo sapiens, A549, 48 h) was greater than 100 µM, the IC50 at 48 h [6] was greater than 100 µM and the IC50 ([2]; Homo sapiens, A2780cis, 48 h) was greater than 100 µM. For the same molecule, the IC50 ([3]; Homo sapiens, MDA-MB-231, 48 h) was greater than 100 µM and the IC50 ([4]; Homo sapiens, A2780, 48 h) was greater than 100 µM.
In the case of `Cc1cccc(Nc2ccccc2C(=O)O)c1C` [HMFe, mefenamic acid], the IC50 ([1]; Homo sapiens, A549, 48 h) is reported as greater than 100 µM, the IC50 ([2]; Homo sapiens, A2780cis, 48 h) is reported as greater than 100 µM and the IC50 ([3]; Homo sapiens, MDA-MB-231, 48 h) is reported as greater than 100 µM. For the same molecule, the IC50 ([4]; Homo sapiens, A2780, 48 h) was greater than 100 µM and the IC50 at 48 h [5] was greater than 100 µM.
`Cc1c(Cl)cccc1Nc1ccccc1C(=O)O` [HMTFe, tolfenamic acid] showed an IC50 ([1]; Homo sapiens, A549, 48 h) greater than 100 µM, an IC50 ([2]; Homo sapiens, A2780cis, 48 h) greater than 100 µM and an IC50 ([3]; Homo sapiens, MDA-MB-231, 48 h) greater than 100 µM. It also gave an IC50 ([4]; Homo sapiens, A2780, 48 h) greater than 100 µM and an IC50 at 48 h [5] greater than 100 µM.
In the case of `[Cl][Ru-4]12([Cl])([n+]3ccccc3-c3cccc[n+]31)[P+](c1ccccc1)(c1ccccc1)CCC[P+]2(c1ccccc1)c1ccccc1` [[RuCl2(bipy)(dppp)], cis-[RuCl2(bipy)(dppp)]], the “stability in DMSO” value [7] is reported as “new signals are observed at ∼40 ppm”, the “stability in DMSO/DMEM solution” value [7] is reported as “two other doublets with chemical shifts at ∼33 and ∼46 ppm” and the IC50 ([1]; MTT, 48 h treatment) is reported as greater than 50 µM. The IC50 ([2]; MTT, 48 h treatment) was 35.6 ± 1.7 µM, the IC50 ([3]; MTT, 48 h treatment) was 26.1 ± 4.84 µM and the IC50 ([4]; MTT, 48 h treatment) was 28 ± 0.81 µM. It also gave an IC50 [8] of 40.9 ± 1.76 µM.
With `F[P-](F)(F)(F)(F)F.c1ccc(Nc2ccccc2C2=[O+][Ru-4]34([O]2)([n+]2ccccc2-c2cccc[n+]23)[P+](c2ccccc2)(c2ccccc2)CCC[P+]4(c2ccccc2)c2ccccc2)cc1` [complex 1, [Ru(Fen)(bipy)(dppp)]PF6] the IC50 ([1]; MTT, 48 h treatment) was 3.96 ± 0.4 µM, the “concentration at which spheroid growth (diameter) was significantly compromised” value ([9]; 0.78–12.5 μM tested, monitored 144 h) was 12.5 µM and the “PI fluorescence in spheroids” value ([9]; DAPI/PI double staining after 144 h) was “increase in the fluorescence intensity of the PI marker”. For the same molecule, the “DAPI and Green Plasma staining” value [10] was “significant shortening of the plasma membrane, while the nucleus remained intact”, the “propidium iodide fluorescence intensity” value [10] was “significant increase in fluorescence intensity” and the cell morphology [10] was “loss of adhesion and round cells are observed”. The IC50 ([2]; MTT, 48 h treatment) was 0.96 ± 0.04 µM, the IC50 ([3]; MTT, 48 h treatment) was 2.87 ± 0.11 µM and the “effect on colony formation” value [11] was “significantly reduced both the number and size of colonies”. The IC50 ([4]; MTT, 48 h treatment) was 0.66 ± 0.04 µM, the Ru uptake percentage [12] was 3,6% and the “amount of ruthenium internalized by A2780 cells” value [12] was 20,8 ± 3,2 ng. It also gave an IC50 [8] of 2.47 ± 0.18 µM.
For `Cc1cccc(Nc2ccccc2C2=[O+][Ru-4]34([O]2)([n+]2ccccc2-c2cccc[n+]23)[P+](c2ccccc2)(c2ccccc2)CCC[P+]4(c2ccccc2)c2ccccc2)c1C.F[P-](F)(F)(F)(F)F` [complex 2, [Ru(MFen)(bipy)(dppp)]PF6], the IC50 ([1]; MTT, 48 h treatment) was 4.57 ± 0.08 µM, the “DAPI and Green Plasma staining” value [10] was “significant shortening of the plasma membrane, while the nucleus remained intact” and the “propidium iodide fluorescence intensity” value [10] was “significant increase in fluorescence intensity”. The cell morphology [10] was “loss of adhesion and round cells are observed”, the IC50 ([2]; MTT, 48 h treatment) was 1.11 ± 0.06 µM and the IC50 ([3]; MTT, 48 h treatment) was 3.99 ± 0.21 µM. For the same molecule, the “effect on colony formation” value [11] was “significantly reduced both the number and size of colonies”, the IC50 ([4]; MTT, 48 h treatment) was 0.91 ± 0.06 µM and the Ru uptake percentage [12] was 4,5%. For the same molecule, the “amount of ruthenium internalized by A2780 cells” value [12] was 26,0 ± 1,9 ng and the IC50 [8] was 2.33 ± 0.04 µM.
With `Cc1c(Cl)cccc1Nc1ccccc1C1=[O+][Ru-4]23([O]1)([n+]1ccccc1-c1cccc[n+]12)[P+](c1ccccc1)(c1ccccc1)CCC[P+]3(c1ccccc1)c1ccccc1.F[P-](F)(F)(F)(F)F` [complex 3, [Ru(TFen)(bipy)(dppp)]PF6] the IC50 ([1]; MTT, 48 h treatment) was 8.74 ± 0.23 µM, the IC50 ([2]; MTT, 48 h treatment) was 2.68 ± 0.26 µM and the IC50 ([3]; MTT, 48 h treatment) was 3.71 ± 0.15 µM. For the same molecule, the IC50 ([4]; MTT, 48 h treatment) was 2.25 ± 0.08 µM and the IC50 [8] was 3.58 ± 0.02 µM.
`FC(F)(F)c1cccc(Nc2ccccc2C2=[O+][Ru-4]34([O]2)([n+]2ccccc2-c2cccc[n+]23)[P+](c2ccccc2)(c2ccccc2)CCC[P+]4(c2ccccc2)c2ccccc2)c1.F[P-](F)(F)(F)(F)F` [complex 4, [Ru(FFen)(bipy)(dppp)]PF6] showed an IC50 ([1]; MTT, 48 h treatment) of 6.87 ± 0.35 µM, an IC50 ([2]; MTT, 48 h treatment) of 4.25 ± 0.11 µM and an IC50 ([3]; MTT, 48 h treatment) of 2.34 ± 0.14 µM. It also gave an IC50 ([4]; MTT, 48 h treatment) of 2.14 ± 0.11 µM and an IC50 [8] of 4.36 ± 0.19 µM.
